PMC11446596 (Critical Care Explorations, 2024)
Where two headings read alike, the source gives them in different places.

How the values were obtained:
[1] = median / average of model-predicted half-life; PICU children
[2] = critically ill children; cited from earlier work
[3] = parameters: species or system human; details: for Trough Vancomycin Concentration achieving AUC24/MIC = 400: regression equation
[4] = AUC24 regression equation, 365 troughs, 238 subjects

## CN[C@H](CC(C)C)C(=O)N[C@H]1C(=O)N[C@@H](CC(N)=O)C(=O)N[C@H]2C(=O)N[C@H]3C(=O)N[C@H](C(=O)N[C@H](C(=O)O)c4cc(O)cc(O)c4-c4cc3ccc4O)[C@H](O)c3ccc(c(Cl)c3)Oc3cc2cc(c3O[C@@H]2O[C@H](CO)[C@@H](O)[C@H](O)[C@H]2O[C@H]2C[C@](C)(N)[C@H](O)[C@H](C)O2)Oc2ccc(cc2Cl)[C@H]1O [vancomycin]
[1]
  half-life (model-predicted, terminal): 6 h
[2]
  Vc reported by Downes et al: 2.59 L
  Vp reported by Downes et al: 5.74 L
[3]; 15 mg/kg q6h, body weight 10 kg, MIC = 0.5 μg/mL
  Trough Vancomycin Concentration achieving AUC24/MIC = 400: 1.8 µg/mL
[3]; 15 mg/kg q6h, body weight 10 kg, MIC = 1 μg/mL
  Trough Vancomycin Concentration achieving AUC24/MIC = 400: 7.4 µg/mL
[3]; 15 mg/kg q6h, body weight 10 kg, MIC = 2 μg/mL
  Trough Vancomycin Concentration achieving AUC24/MIC = 400: 29.9 µg/mL
[3]; 15 mg/kg q6h, body weight 20 kg, MIC = 0.5 μg/mL
  Trough Vancomycin Concentration achieving AUC24/MIC = 400: 1.7 µg/mL
[3]; 15 mg/kg q6h, body weight 20 kg, MIC = 1 μg/mL
  Trough Vancomycin Concentration achieving AUC24/MIC = 400: 6.9 µg/mL
[3]; 15 mg/kg q6h, body weight 20 kg, MIC = 2 μg/mL
  Trough Vancomycin Concentration achieving AUC24/MIC = 400: 28.0 µg/mL
[3]; 15 mg/kg q6h, body weight 40 kg, MIC = 0.5 μg/mL
  Trough Vancomycin Concentration achieving AUC24/MIC = 400: 1.5 µg/mL
[3]; 15 mg/kg q6h, body weight 40 kg, MIC = 1 μg/mL
  Trough Vancomycin Concentration achieving AUC24/MIC = 400: 6.1 µg/mL
[3]; 15 mg/kg q6h, body weight 40 kg, MIC = 2 μg/mL
  Trough Vancomycin Concentration achieving AUC24/MIC = 400: 24.6 µg/mL
[3]; 15 mg/kg q8h, body weight 10 kg, MIC = 0.5 μg/mL
  Trough Vancomycin Concentration achieving AUC24/MIC = 400: 2.5 µg/mL
[3]; 15 mg/kg q8h, body weight 10 kg, MIC = 1 μg/mL
  Trough Vancomycin Concentration achieving AUC24/MIC = 400: 10.0 µg/mL
[3]; 15 mg/kg q8h, body weight 10 kg, MIC = 2 μg/mL
  Trough Vancomycin Concentration achieving AUC24/MIC = 400: 40.7 µg/mL
[3]; 15 mg/kg q8h, body weight 20 kg, MIC = 0.5 μg/mL
  Trough Vancomycin Concentration achieving AUC24/MIC = 400: 2.3 µg/mL
[3]; 15 mg/kg q8h, body weight 20 kg, MIC = 1 μg/mL
  Trough Vancomycin Concentration achieving AUC24/MIC = 400: 9.3 µg/mL
[3]; 15 mg/kg q8h, body weight 20 kg, MIC = 2 μg/mL
  Trough Vancomycin Concentration achieving AUC24/MIC = 400: 37.6 µg/mL
[3]; 15 mg/kg q8h, body weight 40 kg, MIC = 0.5 μg/mL
  Trough Vancomycin Concentration achieving AUC24/MIC = 400: 2.0 µg/mL
[3]; 15 mg/kg q8h, body weight 40 kg, MIC = 1 μg/mL
  Trough Vancomycin Concentration achieving AUC24/MIC = 400: 8.0 µg/mL
[3]; 15 mg/kg q8h, body weight 40 kg, MIC = 2 μg/mL
  Trough Vancomycin Concentration achieving AUC24/MIC = 400: 32.4 µg/mL
[3]; 20 mg/kg q6h, body weight 10 kg, MIC = 0.5 μg/mL
  Trough Vancomycin Concentration achieving AUC24/MIC = 400: 1.8 µg/mL
[3]; 20 mg/kg q6h, body weight 10 kg, MIC = 1 μg/mL
  Trough Vancomycin Concentration achieving AUC24/MIC = 400: 7.2 µg/mL
[3]; 20 mg/kg q6h, body weight 10 kg, MIC = 2 μg/mL
  Trough Vancomycin Concentration achieving AUC24/MIC = 400: 29.3 µg/mL
[3]; 20 mg/kg q6h, body weight 20 kg, MIC = 0.5 μg/mL
  Trough Vancomycin Concentration achieving AUC24/MIC = 400: 1.6 µg/mL
[3]; 20 mg/kg q6h, body weight 20 kg, MIC = 1 μg/mL
  Trough Vancomycin Concentration achieving AUC24/MIC = 400: 6.6 µg/mL
[3]; 20 mg/kg q6h, body weight 20 kg, MIC = 2 μg/mL
  Trough Vancomycin Concentration achieving AUC24/MIC = 400: 26.8 µg/mL
[3]; 20 mg/kg q6h, body weight 40 kg, MIC = 0.5 μg/mL
  Trough Vancomycin Concentration achieving AUC24/MIC = 400: 1.4 µg/mL
[3]; 20 mg/kg q6h, body weight 40 kg, MIC = 1 μg/mL
  Trough Vancomycin Concentration achieving AUC24/MIC = 400: 5.6 µg/mL
[3]; 20 mg/kg q6h, body weight 40 kg, MIC = 2 μg/mL
  Trough Vancomycin Concentration achieving AUC24/MIC = 400: 22.6 µg/mL
[3]; 30 mg/kg q8h, body weight 10 kg, MIC = 0.5 μg/mL
  Trough Vancomycin Concentration achieving AUC24/MIC = 400: 2.3 µg/mL
[3]; 30 mg/kg q8h, body weight 10 kg, MIC = 1 μg/mL
  Trough Vancomycin Concentration achieving AUC24/MIC = 400: 9.3 µg/mL
[3]; 30 mg/kg q8h, body weight 10 kg, MIC = 2 μg/mL
  Trough Vancomycin Concentration achieving AUC24/MIC = 400: 37.6 µg/mL
[3]; 30 mg/kg q8h, body weight 20 kg, MIC = 0.5 μg/mL
  Trough Vancomycin Concentration achieving AUC24/MIC = 400: 2.0 µg/mL
[3]; 30 mg/kg q8h, body weight 20 kg, MIC = 1 μg/mL
  Trough Vancomycin Concentration achieving AUC24/MIC = 400: 8.0 µg/mL
[3]; 30 mg/kg q8h, body weight 20 kg, MIC = 2 μg/mL
  Trough Vancomycin Concentration achieving AUC24/MIC = 400: 32.4 µg/mL
[3]; 30 mg/kg q8h, body weight 40 kg, MIC = 0.5 μg/mL
  Trough Vancomycin Concentration achieving AUC24/MIC = 400: 1.5 µg/mL
[3]; 30 mg/kg q8h, body weight 40 kg, MIC = 1 μg/mL
  Trough Vancomycin Concentration achieving AUC24/MIC = 400: 6.1 µg/mL
[3]; 30 mg/kg q8h, body weight 40 kg, MIC = 2 μg/mL
  Trough Vancomycin Concentration achieving AUC24/MIC = 400: 24.7 µg/mL
[3]; AUC24 regression equation, (Ctr/7)^x, 365 troughs, 238 subjects
  Exponent of trough concentration: 0.495
[3]; [4]
  Additive shift for dose frequency < 8 hours: 54.9
  Slope of (DOSE [mg] - 500): 0.0894
